Measured values reported in the supplement of paper PMC10307832.

Experiments:
Assay in all cases: relative viability (nuclei count vs DMSO), 5 days (fraction); higher = more cells survive
[1] = compound: O=C(NCCCNc1nc(Nc2cccc(NC(=O)N3CCCC3)c2)ncc1I)c1cccs1 [BX 795] + Cc1nc(Nc2ncc(C(=O)Nc3c(C)cccc3Cl)s2)cc(N2CCN(CCO)CC2)n1 [Dasatinib] (partner 0.075 µM)
Method in brief: (§1)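 Lung cancer cell lines, seeded in 1536-well plates, were treated the following day by pin tool with a single drug or with five library-drug doses (not always all listed) in √10 steps on top of a fixed anchor-drug dose. Cells were fixed and nuclei stained in one step after 5 days, and nuclei were counted. Relative viability is the nuclei count for treated wells divided by that for vehicle wells, reported as medians of duplicate plates.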

[2] = compound: O=C(NCCCNc1nc(Nc2cccc(NC(=O)N3CCCC3)c2)ncc1I)c1cccs1 [BX 795] + COc1cccc2cc(-c3nc([C@H]4CC[C@H](C(=O)O)CC4)n4ncnc(N)c34)[nH]c12 [OSI-027] (partner 0.5 µM)
Method in brief: as §1

[3] = compound: O=C(NCCCNc1nc(Nc2cccc(NC(=O)N3CCCC3)c2)ncc1I)c1cccs1 [BX 795] + NC(=O)Nc1cc(-c2cccc(F)c2)sc1C(=O)N[C@H]1CCCNC1 [AZD7762] (partner 0.2 µM)
Method in brief: as §1

[4] = compound: O=C(NCCCNc1nc(Nc2cccc(NC(=O)N3CCCC3)c2)ncc1I)c1cccs1 [BX 795] + C[C@]1(O)C[C@@H](c2nc(-c3ccc4ccc(-c5ccccc5)nc4c3)c3c(N)nccn32)C1 [Linsitinib] (partner 1 µM)
Method in brief: as §1

[5] = compound: O=C(NCCCNc1nc(Nc2cccc(NC(=O)N3CCCC3)c2)ncc1I)c1cccs1 [BX 795] + CS(=O)(=O)CCNCc1ccc(-c2ccc3ncnc(Nc4ccc(OCc5cccc(F)c5)c(Cl)c4)c3c2)o1 [Lapatinib] (partner 2 µM)
Method in brief: as §1

Cell Line	relative viability ([1]; first compound 0.04 µM)	relative viability ([1]; first compound 0.1265 µM)	relative viability ([1]; first compound 0.4 µM)	relative viability ([1]; first compound 1.265 µM)	relative viability ([2]; first compound 0.04 µM)	relative viability ([2]; first compound 0.1265 µM)	relative viability ([2]; first compound 0.4 µM)	relative viability ([2]; first compound 1.265 µM)	relative viability ([3]; first compound 0.04 µM)	relative viability ([3]; first compound 0.1265 µM)	relative viability ([3]; first compound 0.4 µM)	relative viability ([3]; first compound 1.265 µM)	relative viability ([4]; first compound 0.04 µM)	relative viability ([4]; first compound 0.1265 µM)	relative viability ([4]; first compound 0.4 µM)	relative viability ([4]; first compound 1.265 µM)	relative viability ([5]; first compound 0.04 µM)	relative viability ([5]; first compound 0.1265 µM)	relative viability ([5]; first compound 0.4 µM)	relative viability ([5]; first compound 1.265 µM)
RERF-LC-KJ	0.873	0.899	0.707	0.648	0.62	0.636	0.591	0.416	1.16	1.05	1.11	0.86	0.881	0.891	0.94	0.874	0.865	0.764	0.886	0.792
NCI-H1734	0.446	0.465	0.474	0.398	0.536	0.592	0.555	0.419	0.54	0.562	0.51	0.444	0.915	0.968	0.861	0.761	0.993	1.15	0.79	0.801
LK-2	0.35	0.201	0.291	0.304	0.248	0.194	0.186	0.2	0.367	0.33	0.445	0.3	0.518	0.396	0.484	0.393	1.02	0.912	0.83	0.797
NCI-H1395	0.368	0.435	0.397	0.32	0.635	0.686	0.482	0.498	0.375	0.427	0.39	0.381	1.1	0.957	0.611	0.786	0.815	0.819	0.595	0.948
